Values joined by “and” are separate entries in the source; they are usually repeats but may differ in a detail not shown here. Identical values can stand only once.
Conditions: for viscosity / mass density / speed of sound: 102 kPa, Liquid; for viscosity: Concentric cylinders viscometry; for mass density: Vibrating tube method; for speed of sound: Frequency=3 MHz, Single path-length method; for surface tension liquid-gas: Pendant drop shape

CC(CC(C)(C)C)CC(C)(C)CC(C)(C)C (stereo not given) [2,2,4,4,6,8,8-heptamethylnonane]
Conditions | mass density [kg/m3] | speed of sound [m/s] | surface tension liquid-gas [mN/m] | viscosity [mPa·s]
253.15 K | 811.4 | – | – | 14.09
288.15 K | 787.76 | 1305.1 | – | –
293.15 K | 784.41 | 1285.9 | – | 3.75
294.7 K | – | – | 24.2 | –
303.15 K | 777.73 | 1248.3 | – | 2.97
313.15 K | 770.99 | 1211.7 | – | 2.4
323.15 K | 764.27 | 1175.9 | – | 1.97
333.15 K | 757.53 | 1141.3 | – | 1.65

CC(CC(C)(C)C)CC(C)(C)C [2,2,4,6,6-pentamethylheptane]
Conditions | mass density [kg/m3] | speed of sound [m/s] | surface tension liquid-gas [mN/m] | viscosity [mPa·s]
253.15 K | 775.8 | – | – | 3.08
288.15 K | 748.8 | 1223.7 | – | –
293.15 K | 745.2 | 1203.8 | – | 1.31
294 K | – | – | 22.1 | –
303.15 K | 737.9 | 1164.7 | – | 1.13
313.15 K | 730.6 | 1126.5 | – | 0.955
323.15 K | 723.2 | 1089.1 | – | 0.849
333.15 K | 715.8 | 1052.7 | – | 0.744

CCCCc1ccccc1 [butylbenzene]
Conditions | mass density [kg/m3] | speed of sound [m/s] | surface tension liquid-gas [mN/m] | viscosity [mPa·s]
253.15 K | 892.6 | – | – | 2.21
288.15 K | 864.47 | 1373.7 | – | –
293.15 K | 860.17 | 1353.2 | – | 1
295 K | – | – | 29 | –
303.15 K | 852.13 | 1314.3 | – | 0.88
313.15 K | 844.07 | 1276.1 | – | 0.775
323.15 K | 835.98 | 1238.4 | – | 0.687
333.15 K | 827.86 | 1201.5 | – | 0.615

CCCCCCc1ccccc1 [hexylbenzene]
Conditions | mass density | speed of sound | surface tension liquid-gas [mN/m] | viscosity
253.15 K | 888.9 kg/m3 and 889.1 kg/m3 | – | – | 4.56 mPa·s and 4.63 mPa·s
288.15 K | 862.3 kg/m3 and 862.4 kg/m3 | 1395.8 m/s and 1395.6 m/s | – | –
293.15 K | 858.5 kg/m3 and 858.6 kg/m3 | 1376 m/s and 1376.5 m/s | – | 1.64 mPa·s and 1.66 mPa·s
295 K | – | – | 29.3 | –
303.15 K | 850.9 kg/m3 and 851 kg/m3 | 1338.1 m/s and 1338.7 m/s | – | 1.39 mPa·s and 1.41 mPa·s
313.15 K | 843.3 kg/m3 and 843.4 kg/m3 | 1301.1 m/s and 1301.6 m/s | – | 1.17 mPa·s and 1.19 mPa·s
323.15 K | 845.7 kg/m3 and 835.8 kg/m3 | 1264.7 m/s and 1265.3 m/s | – | 1.03 mPa·s and 1.04 mPa·s
333.15 K | 828.1 kg/m3 and 828.2 kg/m3 | 1229.4 m/s and 1229.8 m/s | – | 0.9 mPa·s

Source: the NIST ThermoML archive (doi:10.1021/acs.jced.8b00387)
